Here are results for four molecules from publication PMC2363132, “Phase I and pharmacokinetic study of DACA (XR5000): a novel inhibitor of topoisomerase I and II” (British Journal of Cancer, 1999).

Broadly, the Cmax is the peak of the concentration-time curve. A word on the half-life: it is how long it takes for the measured level to halve. The low end stands for fast loss, the high end for slow loss. For orientation: Tmax means the time at which the peak concentration occurs. The term Vd denotes the apparent volume that relates the amount in the body to the concentration in plasma or blood. High values mean extensive tissue distribution, low ones confinement near the circulation. What is called clearance is the rate of elimination divided by the concentration. High values mean efficient removal, low ones inefficient removal.

Like-named read-outs stand apart in the source and are kept apart here.

Data set [1] deals with sublines of the Jurkat human leukaemia cell line, which have reduced amounts of topoisomerase II. Further details: method as in Finlay et al, 1993. The settings on record: ref Finlay et al, 1993; cited from earlier work.
Data set [2] has as its system cancer patients. Further details: method as in Abigerges et al, 1996. Particulars: phase I trial; ref Abigerges et al, 1996; cited from earlier work.
Data set [3] deals with Lewis lung carcinoma. On the set-up: method as in Atwell et al, 1987; Finlay and Baguley, 1989. Particulars: Lewis lung carcinoma in mice; ref Atwell et al, 1987; Finlay and Baguley, 1989; cited from earlier work.
For data set [4] the following is noted: human, in vivo.
Data set [5] in a line: clinical. Particulars: human, in vivo; for Cmax: 800 mg.
Data set [6] relates to L1210 leukaemia. The settings on record: cited from earlier work.
Data set [7] deals with multi-drug resistant subline of the P388 leukaemia expressing the P-glycoprotein. Further details: method as in Baguley et al, 1990. The settings on record: ref Baguley et al, 1990; cited from earlier work.
The test system of data set [8] is P388 leukaemia. The settings on record: cited from earlier work.
Details of data set [9]: method as in Evans et al, 1992; Paxton et al, 1992, 1993a, 1993b. The settings on record: preclinical; ref Evans et al, 1992; Paxton et al, 1992, 1993a, 1993b; cited from earlier work.
Data set [10] concerns Colon 11 A. Further details: method as in Baguley et al, 1995. The settings on record: Colon 11 A tumour; ref Baguley et al, 1995; cited from earlier work.
The test system of data set [11] is Colon 38. Further details: method as in Baguley et al, 1995. Particulars: Colon 38 tumour; ref Baguley et al, 1995; cited from earlier work.
Details of data set [12]: method as in Evans et al, 1992; Paxton et al, 1992, 1993a, 1993b. Particulars: preclinical pharmacology studies; ref Evans et al, 1992; Paxton et al, 1992, 1993a, 1993b; cited from earlier work.
Data set [13] has as its system patients with solid tumours.
Data set [14] concerns metastatic solid tumour. Kind of data set: Anti-tumour activity in patients, WHO criteria. Type of data set: in vivo, human. Particulars: 41 patients, 9-800 mg m-2.
In data set [15] the test system is murine 16/C tumour. Further details: method as in Baguley et al, 1995. The settings on record: ref Baguley et al, 1995; cited from earlier work.
Data set [16] has as its system mice. Particulars: murine data, cited from earlier work.

With `COc1cccc2c1C(=O)c1c(O)c3c(c(O)c1C2=O)C[C@@](O)(C(=O)CO)C[C@@H]3O[C@H]1C[C@H](N)[C@H](O)[C@H](C)O1` [doxorubicin], the “sensitivity of Jurkat sublines with reduced topoisomerase II” value in data set [1] is “highly resistant”.

Turning to `Cc1cnc(NCCCN(C)C)c2c1[nH]c1ccc3cc(O)ccc3c12` [intoplicine], the dose-limiting toxicity entry in data set [2] was “hepatotoxicity”.

Turning to `CN(C)CCNC(=O)c1cccc2cc3ccccc3nc12.Cl.Cl` [DACA, N-[2-(dimethylamino)ethyl] acridine-4-carboxamide dihydrochloride], the activity in vivo result in data set [3] is recorded as “highly active”; in data set [6], “only moderate activity”; in [8], “only moderate activity”; in [10] it was “highly active”; in [11], “highly active”; in [15] it was “highly active”. In data set [4], this molecule showed a T1/2 of 2.08 h. The same molecule returned a Vss in [4] of 145.21. In addition, the “highest AUC on day 3 of all patients” value in data set [4] came out at 54.2. Moreover, in data set [4], the plasma clearance is 81.11. The “relationship between dose and AUC” value in data set [4] was “linear relationship”. The Cmax in data set [5] (female, Cmax) is 3150 ng/mL; in data set [5] (Cmax (range)), 2310 to 12100 ng/mL. Further, in [5] (T1/2), the half-life is 2.22 h. In addition, the Tmax in [5] (Tmax) came out at 2.91 h. Also, in data set [5] (Vss), the Vd amounted to 143 L. Also, in [5] (plasma clearance), the clearance is 1400 mL/min. The “activity against multi-drug resistant P388 subline expressing P-glycoprotein” value in [7] was “maintains activity”. Besides, the “sensitivity of Jurkat sublines with reduced topoisomerase II” value in data set [1] is reported as “retain sensitivity”. Besides, in data set [9], the “unbound fraction in mouse plasma” value is given as 15.8%. Moreover, the “tissue levels in brain, liver, kidney and heart relative to plasma” value in data set [12] was “substantially higher”. The “maximum tolerated dose (MTD)” value in data set [13] (3 h i.v. infusion on 3 successive days, repeated every 3 weeks) was 800 mg m-2 d-1. For the same molecule, in data set [13] (3 h i.v. infusion on 3 successive days, 800 mg m-2), the “dose-limiting toxicity (DLT)” value is “pain during the infusion”. The clinically significant myelosuppression in data set [13] (all dose levels) was “rare”. In addition, the “objective responses according to WHO criteria” value in [14] is “no objective responses”. Besides, the results for the LD10 entry in data set [16] (five consecutive daily i.v. doses) and in data set [16] (single i.v. dose) were “approximately 30 mg kg-1 per day” and 58 mg/kg, respectively.

On to `COc1cc([C@@H]2c3cc4c(cc3[C@@H](O[C@@H]3O[C@@H]5CO[C@@H](C)O[C@H]5[C@H](O)[C@H]3O)[C@H]3COC(=O)[C@H]23)OCO4)cc(OC)c1O` [etoposide], for which the “sensitivity of Jurkat sublines with reduced topoisomerase II” value in data set [1] is “highly resistant”.
